According to US5422339A, “Peptides having insulin autoantibody but not insulin receptor binding capacity” (Joslin Diabetes Center, Inc., priority 1994, dated 1995):
“Also recorded” adds a separate entry of the source. No end group written: not given here.

Tested on: human insulin autoantibodies
Assay: Competition with 125I-human insulin for binding to human insulin autoantibodies (competitive binding radioassay)
Conditions: for affinity / recognition by human insulin autoantibodies: Type I diabetes-associated autoantibodies, relative to human insulin
Description: Insulin autoantibodies isolated from sera of well-characterized first-degree relatives of patients with Type I diabetes mellitus were analyzed in comparative studies by competition with a series of insulins from different species and with insulin analogues. Insulin binding activity was detected using a competitive binding radioassay and expressed in nU of insulin precipitated per ml of sera (1 nU/ml=7.18 fmole/L).

competition with 125I-human insulin for binding to human insulin autoantibodies (autoantibodies isolated from sera of first-degree relatives of Type I diabetes patients) | potency in binding to insulin autoantibodies relative to human insulin | Substance | affinity / recognition by human insulin autoantibodies
failed to compete | – | Guinea pig insulin: guinea pig insulin; differs from human insulin at 18 positions (Insulin B chain FVSRHLCGSNLVETLYSVCQDDGFFYIPKD; Insulin A chain GIVDQCCTGTCTRHQLQSYCN; ends and bridges not checked; cysteine pairing not given here; UniProt P01329 25-54; P01329 90-110, looked up) | essentially not recognized; also recorded: reduced
– | at least as potent as human insulin | human proinsulin | –
– | – | ovine insulins: ovine insulin; differs from human by three amino acids | high-affinity recognition; also recorded: minimal reduction
